The values that follow come from patent publication EP0486921A1, “N-acetyl-L-cysteine magnesium salt and pharmaceutical compositions containing it” (ZAMBON GROUP S.p.A., priority 1990, dated 1992).

One data set can be described thus: pH of aqueous solution. The class given is physicochemical. Conditions: 1 % aqueous solution. The source says: pH (1 % aqueous solution) = 5.35
A further data set concerns anesthetized guinea pigs. The following applies: guinea pig, in vivo. The method, then:
The experiments were carried out according to the Konzett and Rössler technique [Arch. Exp. Patol. Pharmakol., 195, 71, (1940)] in anesthetized guinea pigs, where the potential increase in total airway resistance induced by the tested compounds was registered as a change in air overflow.
Male guinea pigs (500-600 g body weight) were anesthetized with ethylurethane (1.25 g/kg/i.p.) and the anesthesia was maintained by additional doses of ethylurethane given by intravenous route.
A catheter was inserted into the jugular vein for the administration of histamine.
The guinea pigs were subjected to forced ventilation at constant volume and at 72 breaths/minute.
Basal overflow value was set up to 8 cm H20.
Equimolecular doses of N-acetyl-L-cysteine in the form of free acid, lysine salt, calcium salt and magnesium salt [(NAC)2Mg] were administered as a micronized powder in trachea by forced insufflation.
The bronchoconstrictive effect was evaluated as the equivalent dose of histamine causing the same change in air overflow.
In control experiments the effect of forced insufflation of lactose was evaluated.

A short description of a further data set: Solubility in water. The class given is physicochemical. The text has this: solubility in water: about 50%
The test system of another data set is predisposed subjects. The following applies: the patent says tested doses were much lower than therapeutically useful doses; cited from earlier work.

Each structure is given as a SMILES string. Structures can show the parent of a compound that is named as a salt.

Broadly, the solubility is the concentration that dissolves in the medium under given conditions. High values mean much dissolved substance, low ones little dissolved substance. `CC(=O)N[C@@H](CS)C(=O)O` [(NAC)2Mg, N-acetyl-L-cysteine magnesium salt]: in the data set “pH of aqueous solution”, the pH was 5.35. Moreover, in the data set with anesthetized guinea pigs, the “Histamine dose X-±S.E. (dose of hystamine causing a bronchospasm equivalent to the change in air overflow)” value is recorded as 3.96±0.28 ^(**) µg/kg/i.v and the “bronchoconstrictive effect compared with N-acetyl-L-cysteine” value was “significantly lower”. For the same molecule, the solubility in the data set “Solubility in water” is ~500 mg/mL.
With `CC(=O)N[C@@H](CS)C(=O)O` [NAC calcium salt], in the data set with anesthetized guinea pigs, the “Histamine dose X-±S.E. (dose of hystamine causing a bronchospasm equivalent to the change in air overflow)” value turned out to be 7.03±1.48 µg/kg/i.v and the “bronchoconstrictive effect compared with N-acetyl-L-cysteine” value is on record as “not significantly different”.
`CC(=O)N[C@@H](CS)C(=O)O` [NAC lysine salt]: the “Histamine dose X-±S.E. (dose of hystamine causing a bronchospasm equivalent to the change in air overflow)” value in the data set with anesthetized guinea pigs was found to be 4.53±0.40 µg/kg/i.v. The induction of bronchospasm result in the data set on predisposed subjects is “does not induce bronchospasm”.
Consider `CC(=O)N[C@@H](CS)C(=O)O` [NAC, N-acetyl-L-cysteine], for which, in the data set on anesthetized guinea pigs, the “Histamine dose X-±S.E. (dose of hystamine causing a bronchospasm equivalent to the change in air overflow)” value is on record as 5.81±0.93 µg/kg/i.v.
